Results published in a melting point compilation (Tetko et al.; mined from patent text by program, amines drawn as free bases though some values may be those of a salt).

With `O=C(NC(=O)c1ccccc1Cl)Nc1cc(Cl)c(OC(F)(F)C(F)Cl)cc1Cl` (centres undefined) the melting point was 158 to 160 °C.
In the case of `CCc1nc2c(C)cc(C)nc2n1Cc1ccc(C(c2ccccc2)C(C)(C)C(=O)O)cc1` (centres undefined), the melting point is reported as 103 to 106 °C.
Work on `C=CCn1c(=O)[nH]c2ccccc2c1=N` yielded a melting point of 223 to 224 °C.
With `CCC(NCCN)(C(=O)O)c1cccc(Cl)c1` (centres undefined) the melting point was 207 to 208 °C.
For `CCCCCCCCCCCCc1nnn(C(CCC)C(=O)Nc2c(OC)cc(OC)cc2OC)n1` (centres undefined), the melting point was 146 to 148 °C.
With `CCCc1c(OCCCCCCCOc2ccc(C(=O)c3cccc(C(=O)O)c3)cc2CCC(=O)O)ccc2c1OCCC2=O` the melting point was 152 to 153 °C.
`ON=Cc1ccc(-c2ccc(O)cc2)c2ccoc12` gave a melting point of 219 to 220 °C.
`CC(C(=S)NCN1CCOCC1)c1ccccn1` (centres undefined) showed a melting point of 69 °C.
Work on `COc1ccccc1CCC(=O)Nc1sc2c(c1C#N)CCN(C(=O)OC(C)(C)C)C2` yielded a melting point of 198 °C.
`CN1C(=O)[C@H](NC(=O)Cc2ccc(C(F)(F)F)cc2)N=C(c2ccccc2)c2ccccc21` gave a melting point of 224 to 226 °C.
For `CSc1ccc(-c2c(C)n[nH]c(=O)c2-c2ncc(Cl)cc2Cl)nc1`, the melting point was 229 °C.
For `Nc1cccnc1Nc1ccc(Cl)cc1C(=O)c1ccccc1Cl`, the melting point was 162 to 164 °C.
`CNC(=S)c1ccncc1C1c2ccccc2CC1(C)C` (centres undefined) gave a melting point of 187 to 189 °C.
Work on `C(=NNc1nc(OCCc2ccccn2)nc(N2CCOCC2)n1)c1c[nH]c2ccccc12` yielded a melting point of 158 to 161 °C.
For `C=Cc1ccc(-n2cc(C)c(=O)[nH]c2=O)cc1`, the melting point was 185 °C.
With `O=S(=O)(O)c1cc(O)ccc1O` the melting point was 164 to 167 °C.
For `CCc1ccc2c(c1)C=Cc1cc(C)ccc1C2c1cn(-c2ccnc(N3CCCC3C(=O)O)n2)c(=O)[nH]c1=S` (centres undefined), the melting point was 175 °C.
With `CCN(CC)C(=O)CO/N=C(\C(=O)O)c1csc(N)n1` the melting point was 180 °C.
For `CC(O)=C(C#N)C(=O)Nc1ccc(Br)cc1Br`, the melting point was 181 °C.
With `CC(C)CC12CCC3C4CCC(=O)C=C4CCC3C1CCC2OC(=O)CCc1ccccc1` (centres undefined) the melting point was 101 to 106 °C.
`CS(=O)(=O)C1CCCCC1Br` (centres undefined) showed a melting point of 45 to 48 °C.
Work on `O=S(=O)(NCCSC1c2ccccc2COc2ccc(/C=C/c3ccc4cc(F)c(F)cc4n3)cc21)C(F)(F)F` (centres undefined) yielded a melting point of 84 to 87 °C.
`CCOC(=O)Cc1nc(-c2ccccc2)n(C)n1` showed a melting point of 82 to 83 °C.
With `COc1ccc2c(c1)cc(-c1nnn(Cc3cccc(OCc4ccc5ccccc5n4)c3)n1)c(=O)n2C` the melting point was 125 to 127 °C.
In the case of `Cc1ccc(-c2cc(CO)nn2-c2ccc(S(N)(=O)=O)cc2)cc1`, the melting point is reported as 166 to 169 °C.
With `CC(Oc1cccc(Oc2c(Cl)cc(C(F)(F)F)cc2Cl)c1)(C(=O)Cl)[N+](=O)[O-]` (centres undefined) the melting point was 92 °C.
In the case of `CCCCCNS(=O)(=O)NC(=O)/C(C)=C/c1ccc(OCCOC)cc1Oc1ncc(C(F)(F)F)cc1Cl`, the melting point is reported as 152 to 153 °C.
Molecule `CCn1cc(C(=O)O)c(=O)c2cc(F)c(N3CCC(N(C)C)CC3)c(F)c21` has a melting point of 210 to 211 °C.
For `O=C(O)CCNC(=O)c1ccccc1SSc1ccccc1C(=O)NCCC(=O)O`, the melting point was 201 to 203 °C.
With `CNC(=O)Nc1ccc(-c2ccncc2)c(C)n1` the melting point was 213 to 214 °C.
In the case of `N#Cc1ccc(C2CC(=O)c3ccccc3N2)cc1` (centres undefined), the melting point is reported as 206 to 208 °C.
In the case of `Cc1c(CN(C)C)cc(C(C)(C)CC(C)(C)C)c(O)c1C`, the melting point is reported as 130 to 132 °C.
In the case of `COc1cc(NC(=O)c2cccc(CCc3cc(Nc4ccccc4)n[nH]3)c2)cc(OC)c1OC`, the melting point is reported as 67 to 69 °C.
`CC(C)Cn1c(CCl)c(-c2ccccc2)c2cc(Br)ccc2c1=O` gave a melting point of 145 to 146 °C.
`CCOC(=O)COc1ccc2nc(CC)cc(OCc3ccc(-c4ccccc4-c4nnn(C(c5ccccc5)(c5ccccc5)c5ccccc5)n4)cc3)c2n1` showed a melting point of 146 to 150 °C.
For `COc1cc(C(C)=O)ccc1OCCCN1CCN(c2csc3cc(F)ccc23)CC1`, the melting point was 172 to 174 °C.
With `O=C(Nc1nn[nH]n1)c1cnc(N2CCOCC2)nc1OC1CCCCCC1` the melting point was 287 °C.
`COC(=O)N1C2=C(C(=O)CC(C)(C)C2)C(c2ccc([N+](=O)[O-])cc2)C2=C1CC(C)(C)CC2=O` gave a melting point of 189 to 190 °C.
For `Oc1ccc2c(c1)COc1c-2cc2ccc(O)cc2c1-c1cccc(F)c1`, the melting point was 225 to 227 °C.
`CNC(=S)NS(=O)(=O)C(F)(F)F` showed a melting point of 88 to 90 °C.
For `Cc1cccc(OCC(=S)NCCN2CCCC2)c1C`, the melting point was 62 to 64 °C.
For `Cc1nc(Cn2c(=O)sc3cc(F)c(N=C=O)cc32)no1`, the melting point was 125 to 127 °C.
`COc1ccc2[nH]c(=O)c(=O)n(C)c2c1` gave a melting point of 310 °C.
`CCOC(=O)C(C(=O)OCC)c1ccc(OCC2=NCCN2)cc1` showed a melting point of 72 to 110 °C.
`NC(=O)CNC(=O)c1cccc(-c2ncnc3cc(Cc4cccc(C(F)(F)F)c4)sc23)c1` showed a melting point of 205 to 206 °C.
With `CCN1C(=O)c2cccc(C)c2Oc2ncccc21` the melting point was 74 to 76 °C.
Work on `COC1=C(OC)CC(C)(CNCCCCc2ccc(NC(=O)c3cccc4c(=O)c5cc(F)ccc5sc34)cc2)C=C1` (centres undefined) yielded a melting point of 168 °C.
With `COC(=O)C(=CNc1ccc(O)cc1)C(=O)C=Cc1ccc2ccccc2c1` the melting point was 191 to 192 °C.
Molecule `COc1c(N2CCNCC2)c(F)cc2c(=O)c(C(=O)O)cn(C3CC3)c12` has a melting point of 177 to 178 °C.
